# Experimental data from patent US20190160054A1, “PHARMACEUTICAL COMBINATION OF NINTEDANIB, TRIFLURIDINE AND TIPIRACIL FOR TREATING COLORECTAL CANCER” (Boehringer Ingelheim International GmbH, priority 2016, published 2019).
# How the values were obtained:
# [1] = tested on: metastatic colorectal cancer; assay: phase I/II study of the combination of Compound A1 with Compound Mixture B1 (UMIN000017114); type: in vivo, patients
# From the text: The key eligibility criteria were patients with metastatic colorectal cancer refractory or intolerant to fluoropyrimidine, irinotecan, oxaliplatin, anti-angiogenesis inhibitor and anti-EGFR antibody (if wild-type RAS) and without prior regorafenib and Compound Mixture B1 treatment; at least one measurable lesion; and ECOG performance status of 0 or 1.
# Secondary endpoints included overall survival (OS), PFS, objective response rate, disease control rate, safety, and pharmacokinetic parameters.
# Key Inclusion Criteria: • 1) Written informed consent • 2) >=20 years old • 3) Histologically or cytologically proven adenocarcinoma of colon or rectum (except appendiceal cancer), and KRAS test were carried out. • 4) Prior chemotherapy was discontinued due to disease progression, or an adverse event. • 5) No prior treatment with Regorafenib • 6) ECOG Performance Status of 0 or 1 • 7) Adequate oral intake • 8) With measurable disease according to RECIST • 9) Adequate organ function within 14 days prior to enrollment. • a. Hemoglobin>=9.0 g/d • b. Absolute neutrophil count>=1,500/mm3 • c. Platelet count>=100,000/mm3 • d with no liver metastasis, AST/ALT<=ULNx1.5 and T-Bil<=UNL with liver metastasis, AST/ALT<=ULNx2.5 and T-Bil<=UNL • e Serum creatinine<=1.5 mg/dL • 10) Women of childbearing potential must have a negative pregnancy test within 7 days prior to enrollment. […]
# [2] = tested on: HT-29; assay: in vivo anti-tumor efficacy, colorectal xenograft model HT-29
# [3] = tested on: Rip-Tag; assay: in vivo anti-tumor efficacy, pancreas murine transgenic model Rip-Tag
# [4] = tested on: FaDu; assay: in vivo anti-tumor efficacy, head and neck xenograft model FaDu; conditions: 100 mg/kg/d
# [5] = tested on: NCI-H460; assay: in vivo anti-tumor efficacy, non-small-cell lung xenograft model NCI-H460; conditions: NCI-H460, 25 mg/kg/d
# [6] = tested on: PAC-120; assay: in vivo anti-tumor efficacy, hormone-dependent prostate xenograft model PAC-120; conditions: PAC-120, 100 mg/kg/d
# [7] = tested on: Caki-1; assay: in vivo anti-tumor efficacy, renal xenograft model Caki-1; conditions: Caki-1, 100 mg/kg/d
# [8] = tested on: Calu-6; assay: in vivo anti-tumor efficacy, non-small-cell lung xenograft model Calu-6; conditions: Calu-6, 50 mg/kg/d
# [9] = tested on: GS-9L; assay: in vivo anti-tumor efficacy, glioblastoma GS-9L syngeneic rat tumor model; conditions: 50 mg/kg/d
# [10] = tested on: SKOV3; assay: in vivo anti-tumor efficacy, ovarian xenograft model SKOV3; conditions: SKOV3, 50 mg/kg/d
structure (smiles),measurement,setting,value
"COC(=O)c1ccc2c(c1)NC(=O)/C2=C(\Nc1ccc(N(C)C(=O)CN2CCN(C)CC2)cc1)c1ccccc1 [Compound A, 3-Z-[1-(4-(N-((4-methyl-piperazin-1-yl)-methylcarbonyl)-N-methyl-amino)-anilino)-1-phenyl-methylene]-6-methoxycarbonyl-2-indolinone]","Two dose reduction of nintedanib, Reason","[1]; All enrolled patients, N = 35","DILI (cycle 1, cycle 4)"
same,patients requiring at least one dose reduction of nintedanib,"[1]; all enrolled 35 patients, combination treatment",Five
same,Efficacy T/C,"[2]; HT-29 colorectal model, 100 mg/kg/d, T/C = reduction of tumor size in % of the control",T/C 16% @ 100 mg/kg/d
same,Efficacy,[2]; HT-29 large tumors,tumor volume reduction
same,Efficacy,[3],interference with tumor
same,Efficacy T/C,[4],T/C 11% @ 100 mg/kg/d
same,Efficacy T/C,[5],T/C 54% @ 25 mg/kg/d
same,Efficacy T/C,[6],T/C 34% @ 100 mg/kg/d
same,Efficacy T/C,[7],T/C 13% @ 100 mg/kg/d
same,Efficacy T/C,[8],T/C 24% @ 50 mg/kg/d
same,Efficacy T/C,[9],T/C 32% @ 50 mg/kg/d
same,Efficacy T/C,[10],T/C 19% @ 50 mg/kg/d
